How the values were obtained:
[1] = UV absorption and fluorescence emission spectra; type: physicochemical; conditions: in PBS, cRGD-ILD C ICG = 10 µg mL^−1, ICG 5 µg/mL
Procedure: The ^1H NMR spectra were conducted utilizing a Varian Unity 400 MHz Spectrometer ([…]) in a variety of deuterated solvents. ESI‐MS were obtained with a Thermo Scientific LTQ XL mass spectrometer (Thermo, USA). UV absorption spectra were measured by a Unico UV‐2000 UV–vis Spectrophotometer (Shanghai, China). Photoluminescence excitation and emission spectra were recorded using an FSP920‐combined Time Resolved and Steady State Fluorescence Spectrometer (Edinburgh, UK), equipped with a 450‐W xenon lamp. Both the UV and fluorescence spectrophotometers were scanned within the wavelength range of 650–850 nm.

[2] = free ICG; cited from earlier work
[3] = set-up: method as in earlier work; conditions: clinically approved contrast agent; cited from earlier work

Row | fluorescence emission peak ([1]; λex = 755 nm) | absorption peak [1] | Compound | Photothermal conversion efficiency (PCE) [2] | T 1 relaxivities (r 1) [3]
1 | 764 nm | 755 nm | CC1(C)C(/C=C/C=C/C=C/C=C2\N(CCCCS(=O)(=O)O)c3ccc4ccccc4c3C2(C)C)=[N+](CCCCS(=O)(=O)[O-])c2ccc3ccccc3c21 [ICG, indocyanine green, reference compound] | 15.8% | 
2 |  |  | CNC[C@H](O)[C@@H](O)[C@H](O)[C@H](O)CO.CNC[C@H](O)[C@@H](O)[C@H](O)[C@H](O)CO.O=C([O-])CN(CCN(CC(=O)[O-])CC(=O)O)CCN(CC(=O)[O-])CC(=O)O.[Gd+3] [Magnevist] |  | 5.35 mM⁻¹ s⁻¹

From article PMC12631912, “A Multifunctional Molecular Probe for Multimodal Imaging‐Guided Potent Photothermal/Photodynamic Therapy of Endometriosis” (Advanced Science, 2025)
